What was measured:
Assay in all cases: RBC kinase panel
Type in all cases: biochemical
Conditions in all cases: ATP 10 μM, Data1, Data2
EPHA6 = target: T1, EPHA6 (Homo sapiens, UniProt Q9UF33)
T1 construct: purchased Reaction Biology Corporation
Summary of the method: (§1)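 Single-point screen: 1 μM compound, duplicate wells, 369-kinase human panel, ATP fixed at 10 μM.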

Aurora C = target: T2, Aurora C (Homo sapiens, UniProt Q9UQB9)
T2 construct: purchased Reaction Biology Corporation
Summary of the method: as §1

MLK4 = target: T3, MLK4 (Homo sapiens, UniProt Q5TCX8)
T3 construct: purchased Reaction Biology Corporation
Summary of the method: as §1

FLT3 = target: T4, FLT3 (Homo sapiens, UniProt P36888)
T4 construct: purchased Reaction Biology Corporation
Summary of the method: as §1

KSR1 = target: T5, KSR1 (Homo sapiens, UniProt Q8IVT5)
T5 construct: purchased Reaction Biology Corporation
Summary of the method: as §1

CDK2/Cyclin A1 = target: T6, CDK2/Cyclin A1 (Homo sapiens, UniProt P24941)
T6 construct: purchased Reaction Biology Corporation
Summary of the method: as §1

TTBK1 = target: T7, TTBK1 (Homo sapiens, UniProt Q5TCY1)
T7 construct: purchased Reaction Biology Corporation
Summary of the method: as §1

ULK1 = target: T8, ULK1 (Homo sapiens, UniProt O75385)
T8 construct: purchased Reaction Biology Corporation
T8 sequence (O75385 whole entry): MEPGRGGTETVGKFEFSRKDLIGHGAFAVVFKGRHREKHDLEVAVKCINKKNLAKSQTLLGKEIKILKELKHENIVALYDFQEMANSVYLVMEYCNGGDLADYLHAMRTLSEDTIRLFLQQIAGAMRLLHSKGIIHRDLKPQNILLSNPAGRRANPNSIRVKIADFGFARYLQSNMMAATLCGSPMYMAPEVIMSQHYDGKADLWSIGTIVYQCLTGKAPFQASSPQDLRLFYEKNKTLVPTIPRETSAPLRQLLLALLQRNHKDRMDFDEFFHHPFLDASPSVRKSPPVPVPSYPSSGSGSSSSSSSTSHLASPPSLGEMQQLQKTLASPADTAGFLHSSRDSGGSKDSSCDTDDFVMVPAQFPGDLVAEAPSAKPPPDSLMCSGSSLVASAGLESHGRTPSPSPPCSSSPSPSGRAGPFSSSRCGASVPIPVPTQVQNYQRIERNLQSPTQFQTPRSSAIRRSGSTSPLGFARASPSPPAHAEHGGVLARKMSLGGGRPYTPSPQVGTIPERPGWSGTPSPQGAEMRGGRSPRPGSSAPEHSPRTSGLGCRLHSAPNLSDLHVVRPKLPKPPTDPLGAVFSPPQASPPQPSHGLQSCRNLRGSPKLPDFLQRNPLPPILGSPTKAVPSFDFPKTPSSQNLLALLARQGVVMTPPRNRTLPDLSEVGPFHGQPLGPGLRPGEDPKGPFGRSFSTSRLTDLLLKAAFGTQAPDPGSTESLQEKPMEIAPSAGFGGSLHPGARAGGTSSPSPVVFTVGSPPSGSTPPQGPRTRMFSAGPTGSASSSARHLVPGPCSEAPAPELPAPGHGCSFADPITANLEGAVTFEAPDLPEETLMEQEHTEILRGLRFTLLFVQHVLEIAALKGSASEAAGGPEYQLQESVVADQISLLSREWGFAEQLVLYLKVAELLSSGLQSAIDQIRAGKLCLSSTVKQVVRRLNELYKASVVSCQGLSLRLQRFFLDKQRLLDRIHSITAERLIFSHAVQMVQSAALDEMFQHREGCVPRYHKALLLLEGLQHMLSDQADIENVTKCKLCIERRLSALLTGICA
Summary of the method: as §1

PKCd = target: T9, PKCd (Homo sapiens, UniProt Q05655)
T9 construct: purchased Reaction Biology Corporation
Summary of the method: as §1

FGR = target: T10, FGR (Homo sapiens, UniProt P09769)
T10 construct: purchased Reaction Biology Corporation
Summary of the method: as §1

ABL2/ARG = target: T11, ABL2/ARG (Homo sapiens, UniProt P42684)
T11 construct: purchased Reaction Biology Corporation
Summary of the method: as §1

ABL1 = target: T12, ABL1 (Homo sapiens, UniProt P00519)
T12 construct: purchased Reaction Biology Corporation
Summary of the method: as §1

CDK4/cyclin D3 = target: T13, CDK4/cyclin D3 (Homo sapiens, UniProt P11802)
T13 construct: purchased Reaction Biology Corporation
Summary of the method: as §1

JAK3 = target: T14, JAK3 (Homo sapiens, UniProt P52333)
T14 construct: purchased Reaction Biology Corporation
Summary of the method: as §1

MEKK2 = target: T15, MEKK2 (Homo sapiens, UniProt Q9Y2U5)
T15 construct: purchased Reaction Biology Corporation
T15 sequence (Q9Y2U5 whole entry): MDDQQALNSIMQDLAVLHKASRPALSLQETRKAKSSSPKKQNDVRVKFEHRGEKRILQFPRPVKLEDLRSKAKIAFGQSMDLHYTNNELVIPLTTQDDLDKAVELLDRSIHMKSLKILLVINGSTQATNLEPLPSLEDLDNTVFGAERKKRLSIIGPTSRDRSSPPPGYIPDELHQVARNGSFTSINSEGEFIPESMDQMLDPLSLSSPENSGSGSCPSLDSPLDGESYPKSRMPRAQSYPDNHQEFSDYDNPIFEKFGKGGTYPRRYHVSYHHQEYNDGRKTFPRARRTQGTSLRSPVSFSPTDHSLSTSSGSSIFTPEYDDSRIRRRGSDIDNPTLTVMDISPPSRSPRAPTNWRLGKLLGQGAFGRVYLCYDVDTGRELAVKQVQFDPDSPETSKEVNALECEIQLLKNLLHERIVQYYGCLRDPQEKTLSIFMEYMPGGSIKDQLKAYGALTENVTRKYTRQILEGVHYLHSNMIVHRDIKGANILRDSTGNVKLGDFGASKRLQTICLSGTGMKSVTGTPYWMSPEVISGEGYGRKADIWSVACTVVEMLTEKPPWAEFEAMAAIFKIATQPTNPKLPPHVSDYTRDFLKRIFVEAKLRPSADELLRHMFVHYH
Summary of the method: as §1

FGFR1 = target: T16, FGFR1 (Homo sapiens, UniProt P11362)
T16 construct: purchased Reaction Biology Corporation
Summary of the method: as §1

MARK1 = target: T17, MARK1 (Homo sapiens, UniProt Q9P0L2)
T17 construct: purchased Reaction Biology Corporation
Summary of the method: as §1

PHKg2 = target: T18, PHKg2 (Homo sapiens, UniProt P15735)
T18 construct: purchased Reaction Biology Corporation
T18 sequence (P15735 whole entry): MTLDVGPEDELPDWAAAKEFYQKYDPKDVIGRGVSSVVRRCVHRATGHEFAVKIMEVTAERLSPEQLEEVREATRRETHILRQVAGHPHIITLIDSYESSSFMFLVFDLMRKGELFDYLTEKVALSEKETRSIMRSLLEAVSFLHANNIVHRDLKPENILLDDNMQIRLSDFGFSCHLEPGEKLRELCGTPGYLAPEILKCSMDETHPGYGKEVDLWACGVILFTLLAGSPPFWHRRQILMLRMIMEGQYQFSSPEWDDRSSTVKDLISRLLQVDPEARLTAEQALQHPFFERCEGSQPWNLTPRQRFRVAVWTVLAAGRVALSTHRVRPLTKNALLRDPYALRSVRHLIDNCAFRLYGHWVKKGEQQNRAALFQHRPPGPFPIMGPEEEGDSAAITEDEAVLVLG
Summary of the method: as §1

SGK2 = target: T19, SGK2 (Homo sapiens, UniProt Q9HBY8)
T19 construct: purchased Reaction Biology Corporation
Summary of the method: as §1

PAK5 = target: T20, PAK5 (Homo sapiens, UniProt Q9P286)
T20 construct: purchased Reaction Biology Corporation
Summary of the method: as §1

P38a/MAPK14 = target: T21, P38a/MAPK14 (Homo sapiens, UniProt Q16539)
T21 construct: purchased Reaction Biology Corporation
Summary of the method: as §1

TBK1 = target: T22, TBK1 (Homo sapiens, UniProt Q9UHD2)
T22 construct: purchased Reaction Biology Corporation
T22 sequence (Q9UHD2 whole entry): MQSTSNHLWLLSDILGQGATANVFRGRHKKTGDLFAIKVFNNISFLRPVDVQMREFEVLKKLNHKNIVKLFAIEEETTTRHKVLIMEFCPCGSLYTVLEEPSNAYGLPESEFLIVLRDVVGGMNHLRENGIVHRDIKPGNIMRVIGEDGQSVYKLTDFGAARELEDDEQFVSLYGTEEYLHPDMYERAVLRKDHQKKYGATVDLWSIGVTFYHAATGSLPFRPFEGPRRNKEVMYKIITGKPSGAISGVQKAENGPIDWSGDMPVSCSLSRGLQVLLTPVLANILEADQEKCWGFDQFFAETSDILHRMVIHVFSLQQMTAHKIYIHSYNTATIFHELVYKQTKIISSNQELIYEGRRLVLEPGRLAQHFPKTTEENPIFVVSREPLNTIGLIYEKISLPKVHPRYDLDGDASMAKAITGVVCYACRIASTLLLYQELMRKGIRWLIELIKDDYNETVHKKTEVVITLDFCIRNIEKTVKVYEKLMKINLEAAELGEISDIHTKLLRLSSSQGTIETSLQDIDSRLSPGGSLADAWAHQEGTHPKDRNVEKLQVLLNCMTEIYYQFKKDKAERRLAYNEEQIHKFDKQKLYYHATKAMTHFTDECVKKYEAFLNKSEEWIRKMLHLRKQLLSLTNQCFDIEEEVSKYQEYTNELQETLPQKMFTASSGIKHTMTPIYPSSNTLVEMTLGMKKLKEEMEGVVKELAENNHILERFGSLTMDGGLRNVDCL
Summary of the method: as §1

ERK7/MAPK15 = target: T23, ERK7/MAPK15 (Homo sapiens, UniProt Q8TD08)
T23 construct: purchased Reaction Biology Corporation
Summary of the method: as §1

SSTK/TSSK6 = target: T24, SSTK/TSSK6 (Homo sapiens, UniProt Q9BXA6)
T24 construct: purchased Reaction Biology Corporation
Summary of the method: as §1

IKKe/IKBKE = target: T25, IKKe/IKBKE (Homo sapiens, UniProt Q14164)
T25 construct: purchased Reaction Biology Corporation
Summary of the method: as §1

MST1/STK4 = target: T26, MST1/STK4 (Homo sapiens, UniProt Q13043)
T26 construct: purchased Reaction Biology Corporation
T26 sequence (Q13043 whole entry): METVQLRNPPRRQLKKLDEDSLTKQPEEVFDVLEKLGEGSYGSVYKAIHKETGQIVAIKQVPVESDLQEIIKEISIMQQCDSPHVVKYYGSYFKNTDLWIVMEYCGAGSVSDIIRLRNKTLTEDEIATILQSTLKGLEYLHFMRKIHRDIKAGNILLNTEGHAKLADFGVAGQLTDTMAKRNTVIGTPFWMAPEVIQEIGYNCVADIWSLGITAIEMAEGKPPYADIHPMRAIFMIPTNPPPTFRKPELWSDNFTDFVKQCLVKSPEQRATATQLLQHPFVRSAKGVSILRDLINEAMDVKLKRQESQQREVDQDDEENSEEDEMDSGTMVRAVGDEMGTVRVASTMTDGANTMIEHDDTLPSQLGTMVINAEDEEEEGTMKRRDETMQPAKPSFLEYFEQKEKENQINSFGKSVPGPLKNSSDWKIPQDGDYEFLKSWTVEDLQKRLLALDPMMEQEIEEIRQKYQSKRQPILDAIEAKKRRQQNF
Summary of the method: as §1

GRK4 = target: T27, GRK4 (Homo sapiens, UniProt P32298)
T27 construct: purchased Reaction Biology Corporation
T27 sequence (P32298 whole entry): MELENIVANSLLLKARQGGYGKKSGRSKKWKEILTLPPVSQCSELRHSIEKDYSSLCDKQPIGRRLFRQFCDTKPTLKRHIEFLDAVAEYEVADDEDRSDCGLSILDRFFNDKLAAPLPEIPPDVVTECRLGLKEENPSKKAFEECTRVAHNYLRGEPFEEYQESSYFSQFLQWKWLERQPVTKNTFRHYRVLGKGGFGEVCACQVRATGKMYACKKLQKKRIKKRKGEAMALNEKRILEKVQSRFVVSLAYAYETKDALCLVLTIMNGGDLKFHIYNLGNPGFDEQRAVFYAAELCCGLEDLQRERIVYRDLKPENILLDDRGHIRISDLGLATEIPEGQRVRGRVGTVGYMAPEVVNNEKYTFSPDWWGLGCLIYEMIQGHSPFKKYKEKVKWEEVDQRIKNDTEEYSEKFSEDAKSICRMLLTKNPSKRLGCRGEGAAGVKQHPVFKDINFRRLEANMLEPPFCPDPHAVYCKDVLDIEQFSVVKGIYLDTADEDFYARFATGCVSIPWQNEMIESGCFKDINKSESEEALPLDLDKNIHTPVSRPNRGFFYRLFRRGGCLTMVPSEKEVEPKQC
Summary of the method: as §1

CDK9/cyclin K = target: T28, CDK9/cyclin K (Homo sapiens, UniProt P50750)
T28 construct: purchased Reaction Biology Corporation
Summary of the method: as §1

p70S6K/RPS6KB1 = target: T29, p70S6K/RPS6KB1 (Homo sapiens, UniProt P23443)
T29 construct: purchased Reaction Biology Corporation
Summary of the method: as §1

HCK = target: T30, HCK (Homo sapiens, UniProt P08631)
T30 construct: purchased Reaction Biology Corporation
Summary of the method: as §1

EGFR = target: T31, EGFR (Homo sapiens, UniProt P00533)
T31 construct: purchased Reaction Biology Corporation
T31 sequence (P00533 25-1210): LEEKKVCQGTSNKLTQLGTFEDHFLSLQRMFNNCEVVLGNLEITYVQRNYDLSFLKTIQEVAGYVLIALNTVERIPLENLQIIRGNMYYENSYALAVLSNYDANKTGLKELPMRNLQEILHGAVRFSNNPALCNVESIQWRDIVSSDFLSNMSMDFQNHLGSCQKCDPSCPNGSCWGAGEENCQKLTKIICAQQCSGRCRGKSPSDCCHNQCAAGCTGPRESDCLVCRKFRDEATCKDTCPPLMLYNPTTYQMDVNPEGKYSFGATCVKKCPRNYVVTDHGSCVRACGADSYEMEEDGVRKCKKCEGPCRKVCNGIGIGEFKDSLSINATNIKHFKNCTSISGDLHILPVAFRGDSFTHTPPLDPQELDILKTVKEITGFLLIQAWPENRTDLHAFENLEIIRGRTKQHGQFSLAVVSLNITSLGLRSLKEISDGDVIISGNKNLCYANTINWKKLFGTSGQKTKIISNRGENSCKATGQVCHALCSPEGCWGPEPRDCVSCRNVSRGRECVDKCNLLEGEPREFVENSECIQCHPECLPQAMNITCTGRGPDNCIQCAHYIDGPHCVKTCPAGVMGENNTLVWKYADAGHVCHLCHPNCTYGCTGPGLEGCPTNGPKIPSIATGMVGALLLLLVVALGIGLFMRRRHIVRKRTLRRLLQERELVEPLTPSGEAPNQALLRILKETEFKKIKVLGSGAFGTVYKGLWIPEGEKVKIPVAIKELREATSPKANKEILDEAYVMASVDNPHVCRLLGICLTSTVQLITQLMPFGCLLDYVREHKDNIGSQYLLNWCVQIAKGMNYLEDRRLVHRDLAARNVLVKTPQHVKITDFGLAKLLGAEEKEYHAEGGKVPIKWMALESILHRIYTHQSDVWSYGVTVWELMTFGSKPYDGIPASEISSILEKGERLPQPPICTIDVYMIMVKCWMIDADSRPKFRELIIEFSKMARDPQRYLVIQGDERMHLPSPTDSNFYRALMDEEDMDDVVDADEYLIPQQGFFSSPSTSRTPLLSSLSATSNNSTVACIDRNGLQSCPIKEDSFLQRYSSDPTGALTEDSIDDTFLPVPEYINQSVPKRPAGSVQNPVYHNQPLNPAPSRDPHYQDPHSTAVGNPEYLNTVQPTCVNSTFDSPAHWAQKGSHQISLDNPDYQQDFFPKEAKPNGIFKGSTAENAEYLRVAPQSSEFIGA
Summary of the method: as §1

FES/FPS = target: T32, FES/FPS (Homo sapiens, UniProt P07332)
T32 construct: purchased Reaction Biology Corporation
Summary of the method: as §1

PKCg = target: T33, PKCg (Homo sapiens, UniProt P05129)
T33 construct: purchased Reaction Biology Corporation
Summary of the method: as §1

## CC(=O)Nc1nc2ccc(-c3cnc(C)c(NC(=O)OC4CCCCC4)c3)cc2s1 [PK68, cyclohexyl (5-(2-acetamidobenzo[d]thiazol-6-yl)-2-methylpyridin-3-yl)carbamate]
EPHA6; 1 μM
  Activity%: 97.58%
EPHA6
  activity at 1 µM: 98.1%
Aurora C; 1 μM
  Activity%: 92.22%
Aurora C
  activity at 1 µM: 94.1%
MLK4; 1 μM
  Activity%: 104.45%
MLK4
  activity at 1 µM: 107%
FLT3; 1 μM
  Activity%: 57.70%
FLT3
  activity at 1 µM: 58%
KSR1; 1 μM
  Activity%: 101.02%
KSR1
  activity at 1 µM: 102%
CDK2/Cyclin A1; 1 μM
  Activity%: 96.71%
CDK2/Cyclin A1
  activity at 1 µM: 98.5%
TTBK1; 1 μM
  Activity%: 107.17%
TTBK1
  activity at 1 µM: 110%
ULK1; 1 μM
  Activity%: 100.13%
ULK1
  activity at 1 µM: 105%
PKCd; 1 μM
  Activity%: 100.58%
PKCd
  activity at 1 µM: 101%
FGR; 1 μM
  Activity%: 82.32%
FGR
  activity at 1 µM: 87.2%
ABL2/ARG; 1 μM
  Activity%: 91.15%
ABL2/ARG
  activity at 1 µM: 91.9%
ABL1; 1 μM
  Activity%: 74.18%
ABL1
  activity at 1 µM: 74.3%
CDK4/cyclin D3; 1 μM
  Activity%: 93.75%
CDK4/cyclin D3
  activity at 1 µM: 94.2%
JAK3; 1 μM
  Activity%: 92.17%
JAK3
  activity at 1 µM: 92.9%
MEKK2; 1 μM
  Activity%: 85.76%
MEKK2
  activity at 1 µM: 89.8%
FGFR1; 1 μM
  Activity%: 104.83%
FGFR1
  activity at 1 µM: 105%
MARK1; 1 μM
  Activity%: 96.33%
MARK1
  activity at 1 µM: 97%
PHKg2; 1 μM
  Activity%: 98.74%
PHKg2
  activity at 1 µM: 100%
SGK2; 1 μM
  Activity%: 99.97%
SGK2
  activity at 1 µM: 101%
PAK5; 1 μM
  Activity%: 98.16%
PAK5
  activity at 1 µM: 102%
P38a/MAPK14; 1 μM
  Activity%: 102.59%
P38a/MAPK14
  activity at 1 µM: 106%
TBK1; 1 μM
  Activity%: 96.55%
TBK1
  activity at 1 µM: 97%
ERK7/MAPK15; 1 μM
  Activity%: 96.80%
ERK7/MAPK15
  activity at 1 µM: 99.3%
SSTK/TSSK6; 1 μM
  Activity%: 91.18%
SSTK/TSSK6
  activity at 1 µM: 91.3%
IKKe/IKBKE; 1 μM
  Activity%: 92.74%
IKKe/IKBKE
  activity at 1 µM: 98.2%
MST1/STK4; 1 μM
  Activity%: 100.43%
MST1/STK4
  activity at 1 µM: 100%
GRK4; 1 μM
  Activity%: 103.31%
GRK4
  activity at 1 µM: 107%
CDK9/cyclin K; 1 μM
  Activity%: 104.96%
CDK9/cyclin K
  activity at 1 µM: 106%
p70S6K/RPS6KB1; 1 μM
  Activity%: 101.85%
p70S6K/RPS6KB1
  activity at 1 µM: 102%
HCK; 1 μM
  Activity%: 100.14%
HCK
  activity at 1 µM: 102%
EGFR; 1 μM
  Activity%: 99.30%
EGFR
  activity at 1 µM: 99.7%
FES/FPS; 1 μM
  Activity%: 96.80%
FES/FPS
  activity at 1 µM: 96.9%
PKCg; 1 μM
  Activity%: 95.02%
PKCg
  activity at 1 µM: 95.8%

Source: article PMC6591251, “Discovery of potent necroptosis inhibitors targeting RIPK1 kinase activity for the treatment of inflammatory disorder and cancer metastasis” (Cell Death & Disease, 2019)
